{"source": "patent US20260055103A1", "about": "“2,3,4,9-TETRAHYDRO-1H-PYRIDO[3,4-B]INDOLE DERIVATIVES AS ESTROGEN RECEPTOR MODULATORS FOR THE TREATMENT OF CANCER” (Olema Pharmaceuticals, Inc., priority 2022, published 2026)", "data": [{"biological_target": "T1, estrogen receptor (Homo sapiens, UniProt P03372)", "T1 construct": "endogenous in cells; host or cells: ECC-1 cells", "T1 sequence (P03372 1-595)": "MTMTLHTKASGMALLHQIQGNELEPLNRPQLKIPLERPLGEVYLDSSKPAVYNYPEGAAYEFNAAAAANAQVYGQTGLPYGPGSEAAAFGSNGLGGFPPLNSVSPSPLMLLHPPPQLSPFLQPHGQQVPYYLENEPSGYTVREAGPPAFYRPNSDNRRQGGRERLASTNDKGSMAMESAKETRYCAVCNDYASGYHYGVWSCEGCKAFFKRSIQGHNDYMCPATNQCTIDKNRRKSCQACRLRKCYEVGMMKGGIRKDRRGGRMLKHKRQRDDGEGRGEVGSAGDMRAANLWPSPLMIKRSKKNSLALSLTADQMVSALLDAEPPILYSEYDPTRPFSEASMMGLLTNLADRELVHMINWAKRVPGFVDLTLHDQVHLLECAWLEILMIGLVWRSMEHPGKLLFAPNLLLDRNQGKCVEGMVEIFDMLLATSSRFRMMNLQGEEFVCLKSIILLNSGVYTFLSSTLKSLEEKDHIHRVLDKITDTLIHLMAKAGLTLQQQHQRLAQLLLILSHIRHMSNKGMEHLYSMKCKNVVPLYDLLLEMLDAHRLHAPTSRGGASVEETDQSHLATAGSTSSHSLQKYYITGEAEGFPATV", "experiment": "Alkaline phosphatase (AP) assay in ECC-1 cells, agonist mode (no E2) and antagonist mode (500 pM E2)", "assay_type": "cell-based", "conditions": "3 days, AP activity normalized to 500 pM E2 alone, agonist mode without E2, antagonist mode with 500 pM E2", "protocol": "ECC-1 cells were trypsinized and resuspended in hormone-depleted media and plated at a density of 15 k cells per well into a 96-well plate for at least 4 hours. Cells were treated with test compounds in the absence of E2 (for agonist mode) or in the presence of 500 pM E2 (for antagonist mode) for 3 days and plates were subsequently frozen at −80° C. Thawed plates were incubated with a chromogenic substrate of AP, p-nitrophenyl phosphate (Thermo Fisher Scientific), for 40 minutes at 42° C., and absorbances were read at 405 nm. AP activity was normalized to the activity of 500 pM E2 alone.\nThe compound numbers correspond to the compound numbers of Table 1 and 2. Compounds having an activity designated as “+” provided estrogen receptor agonism having (i) at least 80% increase in the E2-normalized signal in the AP assay (agonist mode) and (ii) no more than 80% reduction in the E2-normalized signal in the AP assay (antagonist mode). Compounds having an activity designated as “++” provided estrogen receptor antagonism having (i) between 10% and 80% increase in the E2-normalized signal in the AP assay (agonist mode) and (ii) between 10% and 80% reduction in the E2-normalized signal in the AP assay (antagonist mode).", "values": [{"smiles": "Cc1cc([C@@H]2c3[nH]c4ccccc4c3C[C@@H](C)N2CC(C)(C)F)sc1CC1CN(CCCF)C1", "note": "[Example I-9, (1S,3R)-2-(2-fluoro-2-methylpropyl)-1-(5-((1-(3-fluoropropyl)azetidin-3-yl)methyl)-4-methylthiophen-2-yl)-3-methyl-2,3,4,9-tetrahydro-1H-pyrido[3,4-b]indole]", "Activity (estrogen receptor modulation, agonism and antagonism)": "++ (estrogen receptor antagonism having (i) between 10% and 80% increase in the E2-normalized signal in the AP assay (agonist mode) and (ii) between 10% and 80% reduction in the E2-normalized signal in the AP assay (antagonist mode))"}, {"smiles": "CCCN1CC(Cc2sc([C@@H]3c4[nH]c5ccccc5c4C[C@@H](C)N3CC(C)(C)F)cc2F)C1", "note": "[Example I-10, (1S,3R)-2-(2-fluoro-2-methylpropyl)-1-(4-fluoro-5-((1-propylazetidin-3-yl)methyl)thiophen-2-yl)-3-methyl-2,3,4,9-tetrahydro-1H-pyrido[3,4-b]indole]", "Activity (estrogen receptor modulation, agonism and antagonism)": "++ (estrogen receptor antagonism having (i) between 10% and 80% increase in the E2-normalized signal in the AP assay (agonist mode) and (ii) between 10% and 80% reduction in the E2-normalized signal in the AP assay (antagonist mode))"}, {"smiles": "CCCN1CC(Cc2cc(F)c([C@@H]3c4[nH]c5ccccc5c4C[C@@H](C)N3CC(C)(C)F)s2)C1", "note": "[Example I-11, 3-({4-fluoro-5-[(1S,3R)-2-(2-fluoro-2-methylpropyl)-3-methyl-1H,2H,3H,4H,9H-pyrido[3,4-b]indol-1-yl]thiophen-2-yl}methyl)-1-propylazetidine]", "Activity (estrogen receptor modulation, agonism and antagonism)": "++ (estrogen receptor antagonism having (i) between 10% and 80% increase in the E2-normalized signal in the AP assay (agonist mode) and (ii) between 10% and 80% reduction in the E2-normalized signal in the AP assay (antagonist mode))"}, {"smiles": "C[C@@H]1Cc2c([nH]c3ccccc23)[C@@H](c2sc(CC3CN(CCCF)C3)cc2F)N1CC(C)(C)F", "note": "[Example I-12, 3-({4-fluoro-5-[(1S,3R)-2-(2-fluoro-2-methylpropyl)-3-methyl-1H,2H,3H,4H,9H-pyrido[3,4-b]indol-1-yl]thiophen-2-yl}methyl)-1-(3-fluoropropyl)azetidine]", "Activity (estrogen receptor modulation, agonism and antagonism)": "++ (estrogen receptor antagonism having (i) between 10% and 80% increase in the E2-normalized signal in the AP assay (agonist mode) and (ii) between 10% and 80% reduction in the E2-normalized signal in the AP assay (antagonist mode))"}, {"smiles": "C[C@@H]1Cc2c([nH]c3ccccc23)[C@@H](c2cc(F)c(CC3CN(CCCF)C3)s2)N1CC(C)(C)F", "note": "[Example I-13, (1S,3R)-2-(2-fluoro-2-methylpropyl)-1-(4-fluoro-5-((1-(3-fluoropropyl)azetidin-3-yl)methyl)thiophen-2-yl)-3-methyl-2,3,4,9-tetrahydro-1H-pyrido[3,4-b]indole]", "Activity (estrogen receptor modulation, agonism and antagonism)": "++ (estrogen receptor antagonism having (i) between 10% and 80% increase in the E2-normalized signal in the AP assay (agonist mode) and (ii) between 10% and 80% reduction in the E2-normalized signal in the AP assay (antagonist mode))"}, {"smiles": "C[C@@H]1Cc2c([nH]c3ccccc23)[C@@H](c2cnc(CC3CN(CCCF)C3)s2)N1CC(C)(C)F", "note": "[Example I-14, 5-[(1S,3R)-2-(2-fluoro-2-methylpropyl)-3-methyl-1H,2H,3H,4H,9H-pyrido[3,4-b]indol-1-yl]-2-{[1-(3-fluoropropyl)azetidin-3-yl]methyl}-1,3-thiazole]", "Activity (estrogen receptor modulation, agonism and antagonism)": "++ (estrogen receptor antagonism having (i) between 10% and 80% increase in the E2-normalized signal in the AP assay (agonist mode) and (ii) between 10% and 80% reduction in the E2-normalized signal in the AP assay (antagonist mode))"}, {"smiles": "C[C@@H]1Cc2c([nH]c3ccccc23)[C@@H](c2ccc(CC3CN(CCC(F)(F)F)C3)s2)N1CC(C)(C)F", "note": "[Example I-15, 3-({5-[(1S,3R)-2-(2-fluoro-2-methylpropyl)-3-methyl-1H,2H,3H,4H,9H-pyrido[3,4-b]indol-1-yl]thiophen-2-yl}methyl)-1-(3,3,3-trifluoropropyl)azetidine]", "Activity (estrogen receptor modulation, agonism and antagonism)": "++ (estrogen receptor antagonism having (i) between 10% and 80% increase in the E2-normalized signal in the AP assay (agonist mode) and (ii) between 10% and 80% reduction in the E2-normalized signal in the AP assay (antagonist mode))"}, {"smiles": "C[C@@H]1Cc2c([nH]c3ccccc23)[C@@H](c2ccc(CC3CN(CCCF)C3)s2)N1CC(F)(F)CO", "note": "[Example I-16, 2,2-difluoro-3-[(1S,3R)-1-(5-{[1-(3-fluoropropyl)azetidin-3-yl]methyl}thiophen-2-yl)-3-methyl-1H,2H,3H,4H,9H-pyrido[3,4-b]indol-2-yl]propan-1-ol]", "Activity (estrogen receptor modulation, agonism and antagonism)": "+++ (estrogen receptor antagonism (i) with pIC50 greater than 7.5 and at least a 10% reduction in the E2-normalized signal in the AP assay (antagonist mode); and no more than 10% increase in E2-normalized signal in the AP assay (agonist mode))"}, {"smiles": "C[C@@H]1Cc2c([nH]c3ccccc23)[C@@H](c2ccc(CC3CN(CCCF)C3)s2)N1CC(F)F", "note": "[Example I-17, 3-({5-[(1S,3R)-2-(2,2-difluoroethyl)-3-methyl-1H,2H,3H,4H,9H-pyrido[3,4-b]indol-1-yl]thiophen-2-yl}methyl)-1-(3-fluoropropyl)azetidine]", "Activity (estrogen receptor modulation, agonism and antagonism)": "+++ (estrogen receptor antagonism (i) with pIC50 greater than 7.5 and at least a 10% reduction in the E2-normalized signal in the AP assay (antagonist mode); and no more than 10% increase in E2-normalized signal in the AP assay (agonist mode))"}, {"smiles": "C[C@@H]1Cc2c([nH]c3ccccc23)[C@@H](c2ccc(CC3CN(CCC(F)F)C3)s2)N1CC(C)(C)F", "note": "[Example I-18, 1-(3,3-difluoropropyl)-3-({5-[(1S,3R)-2-(2-fluoro-2-methylpropyl)-3-methyl-1H,2H,3H,4H,9H-pyrido[3,4-b]indol-1-yl]thiophen-2-yl}methyl)azetidine]", "Activity (estrogen receptor modulation, agonism and antagonism)": "++ (estrogen receptor antagonism having (i) between 10% and 80% increase in the E2-normalized signal in the AP assay (agonist mode) and (ii) between 10% and 80% reduction in the E2-normalized signal in the AP assay (antagonist mode))"}, {"smiles": "CC1CN(CCCc2ccc([C@@H]3c4[nH]c5ccccc5c4C[C@@H](C)N3CC(C)(C)F)s2)C1", "note": "[Example I-19, 1-(3-{5-[(1S,3R)-2-(2-fluoro-2-methylpropyl)-3-methyl-1H,2H,3H,4H,9H-pyrido[3,4-b]indol-1-yl]thiophen-2-yl}propyl)-3-methylazetidine]", "Activity (estrogen receptor modulation, agonism and antagonism)": "++ (estrogen receptor antagonism having (i) between 10% and 80% increase in the E2-normalized signal in the AP assay (agonist mode) and (ii) between 10% and 80% reduction in the E2-normalized signal in the AP assay (antagonist mode))"}, {"smiles": "C[C@@H]1Cc2c([nH]c3ccccc23)[C@@H](c2ccc(CC3CN(CCCF)C3)s2)N1CC(F)(F)F", "note": "[Example I-20, 1-(3-fluoropropyl)-3-({5-[(1S,3R)-3-methyl-2-(2,2,2-trifluoroethyl)-1H,2H,3H,4H,9H-pyrido[3,4-b]indol-1-yl]thiophen-2-yl}methyl)azetidine]", "Activity (estrogen receptor modulation, agonism and antagonism)": "++ (estrogen receptor antagonism having (i) between 10% and 80% increase in the E2-normalized signal in the AP assay (agonist mode) and (ii) between 10% and 80% reduction in the E2-normalized signal in the AP assay (antagonist mode))"}, {"smiles": "C[C@@H]1Cc2c([nH]c3ccccc23)[C@@H](c2ccc(CCCN3CC(CF)C3)s2)N1CC(C)(C)F", "note": "[Example I-21, 1-(3-{5-[(1S,3R)-2-(2-fluoro-2-methylpropyl)-3-methyl-1H,2H,3H,4H,9H-pyrido[3,4-b]indol-1-yl]thiophen-2-yl}propyl)-3-(fluoromethyl)azetidine]", "Activity (estrogen receptor modulation, agonism and antagonism)": "+++ (estrogen receptor antagonism (i) with pIC50 greater than 7.5 and at least a 10% reduction in the E2-normalized signal in the AP assay (antagonist mode); and no more than 10% increase in E2-normalized signal in the AP assay (agonist mode))"}, {"smiles": "C[C@@H]1Cc2c([nH]c3ccccc23)[C@@H](c2ccc(CC3CN(CCCF)C3)s2)N1CC(C)(F)F", "note": "[Example I-22, 3-({5-[(1S,3R)-2-(2,2-difluoropropyl)-3-methyl-1H,2H,3H,4H,9H-pyrido[3,4-b]indol-1-yl]thiophen-2-yl}methyl)-1-(3-fluoropropyl)azetidine]", "Activity (estrogen receptor modulation, agonism and antagonism)": "++ (estrogen receptor antagonism having (i) between 10% and 80% increase in the E2-normalized signal in the AP assay (agonist mode) and (ii) between 10% and 80% reduction in the E2-normalized signal in the AP assay (antagonist mode))"}]}]}
